Data on six compounds can be found in US20230247992A1, “ARTHROPOD CONTROL COMPOSITION” (Firmenich SA, priority 2020, published 2023).

The test system of test [1] is Aedes aegypti. Put plainly: in vitro Warm Body assay, substance introduced in the cage air by forced evaporation (spatial repellence). In kind it is in vivo. The method, then:
(§1) The controlling effect, repellence & spatial repellence, according to the present invention is determined by testing the Warm Body assay against the yellow fever mosquito, Aedes aegypti Rockefeller strain. […] Observations of controlling efficacy were made on host-seeking females of uniform age, 5 to 10 days old selected as mentioned in the publication mentioned hereinabove. Tested hungry females had access to 10% sugar solution but were not blood-fed. Further information is provided in the accompanying examples.
(§2) The published protocol has been adapted in not manually counting the landing mosquitoes but automatically using an automatic counting software, the switch from Anopheles gambiae to A. aegypti led to a decrease of mosquitoes’ number placed in the tested cage due to the size difference (i.e. 30 mosquitoes instead of 50) and to an increase of lighting as A. aegypti is a diurnal mosquitoes (i.e. 150 lux instead of 4 lux). Further information is provided in the accompanying examples.,
(§3) The controlling effect of the compositions according to the present invention was assessed using an adapted Warm Body assay as defined in Kröber T, Kessler S, Frei J, Bourquin M, Guerin PM. 2010. An in vitro assay for testing mosquito controlling compounds employing a warm body and carbon dioxide as a behavioral activator. J Am Mosq Control Assoc. 26:381-386. In this in-vitro assay the number of mosquito landing on a warm body, simulating an attractive host treated with the tested stimuli, was measured in order to assess the repellence effect.
(§4) The published protocol has been adapted in not manually counting the landing mosquitoes but automatically using an automatic counting software, the switch from Anopheles gambiae to Aedes aegypti led to a decrease of mosquitoes’ number placed in the tested cage due to the size difference (i.e. 30 mosquitoes instead of 50) and to an increase of lighting as A. aegypti is a diurnal mosquitoes (i.e. 150 lux instead of 4 lux).
(§5) In addition, since the inventors were interested by assessing spatial repellence added or not to a deterrent effect, the substance was applied using two different technics. Whether, as in Kröber et al. (2010), both deterrent and repellent effect were investigated (i.e. similar effect than most body care applications such as lotion) and the substances was applied on a sandblasted glass Petri dish placed on top of the warm body. Whether only the spatial repellence was investigated (i.e. similar effect than most home care applications such as liquid electric dispenser) and the substance was introduced in the cage space thanks to a forced evaporation system as described in Chappuis C J-F, Niclass Y, Vuilleumier C, Starkenmann C. 2015. Quantitative Headspace Analysis of Selected Odorants from Latrines in Africa and India. Environ. Sci. Technol. 49:6134-6140.
(§6) As stated in Kröber et al. (2010), selected 10-12 days old hungry females, that had ad libitum access to 10% sugar solution but were not blood-fed, were selected for the assay.
The forced evaporation system allows to fill the volume of the cage with stimuli tested, (2-methyl-4-oxo-3-prop-2-ynylcyclopent-2-en-1-yl) 2,2-dimethyl-3-(2-methylprop-1-enyl)cyclopropane-1-carboxylate (prallethrin) and N,N-diethyl-3-methylbenzamide (DEET) being used as benchmarks. In order to limit potential dead volumes in the cage, five flushes of the cage were made before starting the 2 minutes test during which the number of mosquito landings was counted.

In test [2] the test system is Aedes aegypti. Briefly: in vitro Warm Body assay, substance applied on glass Petri dish on top of the warm body (deterrence and repellence). Format: in vivo. The method, then: as §1, §2, §3, §4, §5, §6
On the sandblasted glass Petri dish covering the warm body (28.3 cm^2), 100 µL of the substances diluted at different concentrations in ethanol was applied. The number of mosquito landing on the warm body was counted for each stimuli, N,N-diethyl-3-methylbenzamide (DEET) and ethyl 3-[acetyl(butyl)amino]propanoate (IR3535) being used as benchmarks and pure ethanol as control.

[3] abbreviates: 0.0017 µg/L air, without substance 54.1±4.9.
Setting [4] is: 0.017 µg/L air, without substance 54.1±4.9.
The mark [5] stands for this setting: 0.17 µg/L air, without substance 54.1±4.9.
Where [6] appears, read: 1.7 µg/L air, without substance 54.1±4.9.
The mark [7] stands for this setting: 17 µg/L air, without substance 54.1±4.9.
[8] abbreviates: 0.04% in ethanol, ethanol control 67.0±8.8 landings.
The mark [9] stands for this setting: 1% in ethanol, ethanol control 67.0±8.8 landings.
[10] abbreviates: […] in ethanol, ethanol control 67.0±8.8 landings.
Where [11] appears, read: 0.0017 µg/L air, without substance 56.0±3.6.
The mark [12] stands for this setting: 0.017 µg/L air, without substance 56.0±3.6.
Setting [13] is: 0.17 µg/L air, without substance 56.0±3.6.
Where [14] appears, read: 1.7 µg/L air, without substance 56.0±3.6.
The mark [15] stands for this setting: 17 µg/L air, without substance 56.0±3.6.

For `OCCc1ccccc1` [2-phenylethanol], the “number of mosquitoes landing within 2 minutes on the warm body, air in the cage saturated with stimulus” value (shortened to “number … with stimulus”) in test [1] (setting [3]) was 12.0; in test [1] (setting [4]), 30.0; in test [1] (setting [5]) it was 25.0; in test [1] (setting [6]), 51.0; in test [1] (setting [7]) it was 30.0. For the same compound, the landing decrease in test [1] (highest dose tested) is 41%. Moreover, the “number of mosquitoes landing within 2 minutes on the warm body” value turned out to be 46.0 in test [2] (setting [8]), 0.0 in test [2] (setting [9]) and 72.0 in test [2] (setting [10]).
Turning to `CC(C)C(=O)OCCc1ccccc1` [2-phenylethyl 2-methylpropanoate], the figures for the “number of mosquitoes landing within 2 minutes on the warm body” value in test [2] (setting [8]), in test [2] (setting [9]) and in test [2] (setting [10]) were 55.0, 2.0 and 90.0, respectively.
On to `CC(=O)OC1CC(C)CCC1C(C)C` (stereo not drawn) [5-methyl-2-propan-2-ylcyclohexyl] acetate], for which the “number … with stimulus” value was found to be 31.5 in test [1] (setting [11]); 24.0 in test [1] (setting [12]); 17.5 in test [1] (setting [13]); 9.0 in test [1] (setting [14]); 25.0 in test [1] (setting [15]). The “number of mosquitoes landing within 2 minutes on the warm body” value in test [2] (0.04% in ethanol, ethanol control 67.1±9.1 landings) turned out to be 16.0; in test [2] (1% in ethanol, ethanol control 67.1±9.1 landings), 10.0; in test [2] ([…] in ethanol, ethanol control 67.1±9.1 landings), 22.0.
Turning to `CC1=CC[C@@H]2[C@H](C1)C2(C)C` [(1S,6R)-3,7,7-trimethylbicyclo[4.1.0]hept-3-ene], the entries for the “number of mosquitoes landing within 2 minutes on the warm body” value in test [2] (setting [8]), in test [2] (setting [9]) and in test [2] (setting [10]) were 55.0, 8.0 and 59.0, respectively.
Regarding `COC(C)(C)[C@H]1CC=C(C)CC1` [(4R)-4-(2-methoxypropan-2-yl)-1-methylcyclohexene], the figures for the “number of mosquitoes landing within 2 minutes on the warm body” value in test [2] (setting [8]), in test [2] (setting [9]) and in test [2] (setting [10]) were 18.0, 3.0 and 52.0, respectively. Also, in test [2] (concentration of 0.04%), the landings per minute is reported as ~ 10 landings per minute.
As to `C#CCC1=C(C)C(OC(=O)C2C(C=C(C)C)C2(C)C)CC1=O` (stereo not drawn) [prallethrin, (2-methyl-4-oxo-3-prop-2-ynylcyclopent-2-en-1-yl) 2,2-dimethyl-3-(2-methylprop-1-enyl)cyclopropane-1-carboxylate, reference compound], the “number … with stimulus” value worked out at 77.0 in test [1] (setting [3]); 77.0 in test [1] (0.0017 µg/L air, without substance 54.7±3.2); 77.0 in test [1] (setting [11]); 66.0 in test [1] (setting [4]); 66.0 in test [1] (0.017 µg/L air, without substance 54.7±3.2); 66.0 in test [1] (setting [12]). Moreover, the “number … with stimulus” value in test [1] (setting [5]) was 15.5; in test [1] (0.17 µg/L air, without substance 54.7±3.2) it was 15.5; in test [1] (setting [13]), 15.5; in test [1] (setting [6]), 3.0; in test [1] (1.7 µg/L air, without substance 54.7±3.2), 3.0; in test [1] (setting [14]), 3.0. The “number … with stimulus” value in test [1] (setting [7]) is 1.0; in test [1] (17 µg/L air, without substance 54.7±3.2) it was 1.0; in test [1] (setting [15]) it was 1.0.
